Results reported in US9067920B2, “Compounds useful for inhibiting Chk1” (Eli Lilly and Company, priority 2010, dated 2015).
Where a name gives a salt, the structure may show the parent alone.

Key:
[1] = target: recombinant Chk2 protein kinase (Homo sapiens, UniProt O96017); assay: Chk2 biochemical assay (CHK2/substrate peptide filter binding); settings: 60 μM ATP, 1.4 nM Chk2 enzyme
Procedure: The effect of compounds on Chk2 biochemical activity can be determined using a CHK2/substrate peptide filter binding assay. In this assay, a synthetic peptide based on the amino acid sequence residues 206-225 of Cdc25C, is used as a phospho-acceptor substrate for recombinant Chk2 protein kinase. Using γ-^33P-ATP as the phospho-donor substrate, Chk2 transfers the radioactive γ-^33phosphate group to the synthetic peptide. The reaction is measured by capturing the peptide substrate on a cation exchange paper filter plate and scintillation counting of emitted beta particles.
The kinase reactions (40 μL reaction volumes) are performed in 96-well V-bottom polystyrene plates. Reactions are initiated with the addition of Chk2 enzyme. […]
Following Chk2 enzyme addition, the reactions are incubated at room temperature for 90 min, and then terminated with the addition of 140 μL of phosphoric acid. […] After sitting for 4 h at room temperature, the radioactivity in the plate is measured using a MicroBeta Trilux microplate scintillation counter (Perkin Elmer).
For IC50 determination, the percent inhibition for each concentration is calculated using the […] from controls run on each plate. […] Absolute IC50 values are calculated from the resulting curve. […]

[2] = tested on: HeLa cells; assay: Doxorubicin-induced G2M checkpoint abrogation HeLa cell-based Acumen assay (pHH3); settings: 125 nM doxorubicin, 7 h compound
Procedure: An inhibitor of Chk1 will disable the G2M DNA damage checkpoint in p53-minus tumor cells treated with the topoisomerase II inhibitor, doxorubicin. A measurement of G2M checkpoint abrogation is the phosphorylation of histone H3 on serine 10 that occurs after cells traverse the G2M checkpoint and enter mitosis. The following high content imaging assay can be used to measure the phosphorylation histone H3 in cells. HeLa cells are cultured in MEM Media supplemented with 10% (v/v) FBS and plated at 2000 cells per well in poly D-lysine coated clear bottom black plates, 100 μL volume per well. Plates are then incubated in a cell culture incubator for 18-24 h (37° C., 5% CO2 and 95% relative humidity), Following the initial incubation, 20 μL of MEM Media plus 10% FBS containing […] doxorubicin are added to the appropriate wells of the plates resulting in a final concentration of 125 nM. The plates are returned to the incubator for 24 h, sufficient to arrest the cells at the G2M checkpoint. The next day the cells are treated 1.0 with compounds. Compounds are solubilized at […] in 100% DMSO and then diluted to a 10× stock starting at 50 μM in MEM plus 4% (v/v) DMSO. Subsequently, serial dilutions of the compounds (1:2) are prepared over a 50 μM to 0.39 μM range. Thirteen μL of compound stock is added to the appropriate wells in the plate to produce a final DMSO concentration of 0.4% and a final compound concentration range between 5 and 0.039 μM. […] Plates are scanned with ACUMEN EXPLORER™ Laser-scanning fluorescence microplate cytometers using 488 nm excitation (TTP LABTECH LTC) to measure pHH3 and DNA content including 2N, and 4N, The pHH3 positive cells are identified by mean intensity at 519 nm from Alexa 488. […] The final readout for each population is determined by normalizing to the % of total cells producing a final assay output of % pHH3, % 2N, and % 4N. 100% activity is then determined by treating cells with the maximum concentration of an inhibitor control compound at 100 nM to determine the final % activity of each compound. […]

[3] = tested on: HT-29 colon carcinoma cells; assay: ECtfs (two-fold sensitization) assay, gemcitabine potentiation, MTS; format: cell-based; settings: Homo sapiens, HT-29 cells
Procedure: An inhibitor of Chk1 can potentiate the anti-proliferative activity of gemcitabine (or other cytotoxics) through abrogation of the intra-S phase checkpoint, resulting in sustained and increased DNA damage. The capacity for continued tumor cell proliferation after DNA damage can be analyzed by determining the ability of cells to replicate their DNA. […] In this assay, cells are treated with a dilution series of gemcitabine, and then 22 h later with the compound of Example 3, After an additional 44 h, the relative cell number is assessed by a MTS (3-(4,5-dimethylthiazol-2-yl)-5-(3-carboxymethoxyphenyl)-2-(4-sulfophenyl)-2H-tetrazolium) dye reduction assay. The ECtfs parameter is a measure of the concentration of a Chk1 inhibitor necessary to reduce by half the (1190 concentration of gemcitabine, measured in this assay in the absence of Chk1 inhibition. HT-29 cells (obtained from ATCC), are grown in RPMI 1640 plus 10% (v/v) heat inactivated FBS, The cells are plated at 2.5×10^3 per well, in a volume of 100 μL on 96-well tissue culture plates and incubated for 24 h. Gemcitabine dilutions are prepared at 6× concentrations in McCoy's 5A medium (modified) (1×) and added to wells at 20 μper well. Gemcitabine dilutions were set up with the highest final concentration of gemcitabine being 1.0 μM and dilutions made by three-fold steps to 0.5 nM.
Chk1 Inhibitor is prepared by dilutions in DMSO to 4000× final concentration, and then diluted 666-fold into McCoy's medium to generate 6× stocks. Chk1 inhibitor dilutions proceed by 2.5-fold steps starting at 25 nM down to 0.3 nM. Twenty-two hours 1.0 after gemcitabine addition, Chk1, inhibitor is added in a volume of 24 μL to wells containing 120 μL of medium plus gemcitabine. Each gemcitabine dilution receives a single Chk1 inhibitor dilution. Control wells received DMSO, gemcitabine, or Chk1 inhibitor alone. Forty-four hours after addition of Chk1 inhibitor, 30 μL of CellTiter 96® AQueous assay reagent, is added to each well and held at room temperature for 1 hour and 45 minutes. Absorbance is read on a SpectraMax 250 (Molecular Devices) spectrophotometer at 490 nm. Data from the SpectraMax spectrophotometer are analyzed with GraphPad Prism 4.0. First, an averaged no cell control absorbance is subtracted from all other values in the matrix of data from each plate. Next, duplicate data points are averaged. Data are normalized for each Chk1 inhibitor concentration, with 0% cell number set as corrected A490=0, and 100% cell number set as the 0 nM gemcitabine mean value. […] Gemcitabine concentrations are converted to log concentrations, and normalized cell number values are converted to percent inhibition (percent inhibition=1.00-normalized value). Transformed data are plotted, and a non-linear regression is run to estimate an IC50 value for gemcitabine at each Chk1 inhibitor concentration. The nonlinear regression is calculated allowing the slope to vary, and without constraints for the top or bottom of the dose-response curves. The ECtfs value is calculated as follows: GI50 values for gemcitabine for each Chk1 inhibitor concentration are determined, plotted, and the concentration of Chk1 inhibitor necessary to decrease the gemcitabine alone GI50 by two-fold is determined by interpolation.
Compounds within the scope of the invention are tested in this assay run substantially as above. For example, the compound of Example 3 is tested and found to have an ECtfs value of 1.0 nM (SE=0.1, n=3). […]

[4] = tested on: HT-29 colon tumor xenograft; assay: HT-29 tumor xenograft model, subcutaneous administration of Chk1 inhibitor; format: in vivo, nude mice; settings: HT29, gemcitabine 60 mpk ip alone
Procedure: (§1) The ability of Chk1 inhibitors to potentiate tumor killing by DNA damaging agents can be determined in vivo using the Calu-6 lung and HT-29 colon tumor xenograft efficacy models. Calu-6 lung cancer cells are cultured in growth media (MEM with Earle's Balanced Salt Solution with L-glutamine supplemented with 10% (v/v) heat inactivated FBS, 1×MEM non-essential amino acids, 1× sodium pyruvate) and HT-29 colon cancer cells (ATCC) are cultured in growth media, (McCoy's 5A medium supplemented with 10% FBS) and expanded.
(§2) Cells are harvested and washed twice with phosphate buffered saline and 5×10^6 cells (HT-29) or 1×10^6 a cells (Calu-6) in growth media (without serum) are mixed with equal volume of BD Matrigel™ matrix, then injected subcutaneously into the flank of nude mice (CD-1 nu/nu).
(§3) At about day 16 after implant ([…]), gemcitabine is formulated fresh in saline daily and administered to animals by intraperitoneal route at 60 mg/kg dose. Twenty four hours later animals are administered the compound of Example 3, in 0.2% Tween-80/0.5% methylcellulose subcutaneously BID. After […], dosing is repeated for three additional cycles (Q4Dx4 with the compound of Example 3 offset+24 hours), Tumor growth inhibition (TGI) is calculated as the percent reduction in mean tumor size of a compound treated group from the mean tumor size of the vehicle-treated control group. Compounds within the scope of the invention are tested in this assay run substantially as above.

[5] = tested on: Calu-6 lung tumor xenograft; assay: Calu-6 tumor xenograft model, subcutaneous administration of Chk1 inhibitor; format: in vivo, nude mice; settings: Calu 6, gemcitabine 60 mpk ip alone
Procedure: as §1, §2, §3

[6] = tested on: Calu-6 lung tumor xenograft; assay: Calu-6 tumor xenograft model, oral administration of Chk1 inhibitor; format: in vivo, nude mice; settings: Calu6, gemcitabine 40 mpk ip alone
Procedure: as §1, §2
(§4) At about day 16 after implant (150-200 mm^3), gemcitabine is formulated fresh in saline daily and administered to animals by intraperitoneal route at 40 mg/kg dose. Twenty four hours later animals are administered Chk1 compound, in 0.2% Tween-80/0.5% methylcellulose by the oral route MD. After three days of rest, dosing was repeated for three additional cycles (Q5Dx4 with the compound of Example 3 offset+24 hours). Tumor growth inhibition (TGI) is calculated as described in the previous paragraph. Compounds within the scope of the invention are tested in this assay run substantially as above.

[7] = tested on: HT-29 colon tumor xenograft; assay: HT-29 tumor xenograft model, oral administration of Chk1 inhibitor; format: in vivo, nude mice; settings: HT29, gemcitabine 40 mpk ip alone
Procedure: as §1, §2, §4

Chain of recombinant Chk2 protein kinase (O96017 whole entry, the tested form may be a part): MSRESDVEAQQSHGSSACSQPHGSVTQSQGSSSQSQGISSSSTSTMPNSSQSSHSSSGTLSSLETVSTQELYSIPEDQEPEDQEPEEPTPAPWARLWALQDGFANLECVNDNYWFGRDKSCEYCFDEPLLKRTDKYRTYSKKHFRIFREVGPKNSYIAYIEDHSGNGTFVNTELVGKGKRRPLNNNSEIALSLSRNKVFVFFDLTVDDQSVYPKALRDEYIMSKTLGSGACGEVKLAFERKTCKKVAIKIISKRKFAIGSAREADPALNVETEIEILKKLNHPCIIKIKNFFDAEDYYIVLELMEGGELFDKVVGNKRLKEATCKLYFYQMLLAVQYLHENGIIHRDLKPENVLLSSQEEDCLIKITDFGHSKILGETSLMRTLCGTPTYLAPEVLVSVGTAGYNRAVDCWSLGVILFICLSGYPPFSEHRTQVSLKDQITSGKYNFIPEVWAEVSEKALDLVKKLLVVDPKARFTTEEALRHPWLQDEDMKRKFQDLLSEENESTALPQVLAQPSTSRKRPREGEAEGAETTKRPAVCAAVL

Row | Compound | IC50 [1] | EC50 [2] | IC50 ([3]; [Example 3] 0 nM) | EC50 ([3]; gemcitabine alone) | % TGI at day 38 [4] | % TGI at day 47 [5] | % TGI at day 37 [6] | % TGI at day 50 [7]
1 | COc1nc(C)ccc1-c1cc(Nc2cncc(O[C@@H]3CCCNC3)n2)[nH]n1 [Example 2, (R)-[5-(2-Methoxy-6-mcethyl-pyridin-3-yl)-2H-pyrazol-3-yl]-[6-(piperidin-3-yloxy)-pyrazin-2-yl]-amine methane sulfonic acid salt] | 12 nM | 33 nM | – | – | – | – | – | –
2 | Nc1ccn([C@@H]2O[C@H](CO)[C@@H](O)C2(F)F)c(=O)n1 [Gemcitabine, gemcitabine, reference compound] | – | – | 22 nM | 22 nM | 11% | −41% | 32% | 25%
